# Data: patent US8192962B2, “Processes for detecting toxic substances” (Daikin Industries, Ltd., priority 2001, dated 2012)
# Test system: Transport facilitation protein genes
# Assay: DNA chip mRNA expression in yeast, transport facilitation protein genes (Table 5)
# Type: cell-based, Saccharomyces cerevisiae S288C
# Outline: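 S. cerevisiae S288C grown at 25° C in YPD were exposed in log phase for two hours to one toxic chemical at a growth-inhibiting, non-lethal concentration; untreated cells served as control. Poly(A) mRNA was reverse-transcribed with Cy3/Cy5-dUTP and hybridized to a whole-genome yeast DNA chip at 65° C for over 12 hours; values are fluorescence ratios versus untreated.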
compound,measurement,setting,value
"Oc1cc(Cl)c(Cl)cc1Cl [(6), 2,4,5-trichlorophenol]",The level of expressed mRNA in the presence of chemical substance/The level of expressed mRNA in the absence of chemical substance,yeast gene YBL030C,1.1
same,The level of expressed mRNA in the presence of chemical substance/The level of expressed mRNA in the absence of chemical substance,yeast gene YBL099W,0.9
same,The level of expressed mRNA in the presence of chemical substance/The level of expressed mRNA in the absence of chemical substance,yeast gene YBR052C,2.1
same,The level of expressed mRNA in the presence of chemical substance/The level of expressed mRNA in the absence of chemical substance,yeast gene YBR068C,1.9
same,The level of expressed mRNA in the presence of chemical substance/The level of expressed mRNA in the absence of chemical substance,yeast gene YBR127C,1.1
same,The level of expressed mRNA in the presence of chemical substance/The level of expressed mRNA in the absence of chemical substance,yeast gene YBR132C,1.2
same,The level of expressed mRNA in the presence of chemical substance/The level of expressed mRNA in the absence of chemical substance,yeast gene YBR207W,1.6
same,The level of expressed mRNA in the presence of chemical substance/The level of expressed mRNA in the absence of chemical substance,yeast gene YBR293W,0.9
same,The level of expressed mRNA in the presence of chemical substance/The level of expressed mRNA in the absence of chemical substance,yeast gene YBR294W,1.2
same,The level of expressed mRNA in the presence of chemical substance/The level of expressed mRNA in the absence of chemical substance,yeast gene YBR298C,0.4
same,The level of expressed mRNA in the presence of chemical substance/The level of expressed mRNA in the absence of chemical substance,yeast gene YCL025C,0.9
same,The level of expressed mRNA in the presence of chemical substance/The level of expressed mRNA in the absence of chemical substance,yeast gene YCL038C,3.2
same,The level of expressed mRNA in the presence of chemical substance/The level of expressed mRNA in the absence of chemical substance,yeast gene YCR024C-A,1.2
same,The level of expressed mRNA in the presence of chemical substance/The level of expressed mRNA in the absence of chemical substance,yeast gene YCR037C,1.8
same,The level of expressed mRNA in the presence of chemical substance/The level of expressed mRNA in the absence of chemical substance,yeast gene YCR098C,1.6
same,The level of expressed mRNA in the presence of chemical substance/The level of expressed mRNA in the absence of chemical substance,yeast gene YDL128W,2.3
same,The level of expressed mRNA in the presence of chemical substance/The level of expressed mRNA in the absence of chemical substance,yeast gene YDL198C,0.8
same,The level of expressed mRNA in the presence of chemical substance/The level of expressed mRNA in the absence of chemical substance,yeast gene YDL210W,1.3
same,The level of expressed mRNA in the presence of chemical substance/The level of expressed mRNA in the absence of chemical substance,yeast gene YDL245C,1.1
same,The level of expressed mRNA in the presence of chemical substance/The level of expressed mRNA in the absence of chemical substance,yeast gene YDR038C,1.8
same,The level of expressed mRNA in the presence of chemical substance/The level of expressed mRNA in the absence of chemical substance,yeast gene YDR039C,1.1
same,The level of expressed mRNA in the presence of chemical substance/The level of expressed mRNA in the absence of chemical substance,yeast gene YDR086C,0.8
same,The level of expressed mRNA in the presence of chemical substance/The level of expressed mRNA in the absence of chemical substance,yeast gene YDR270W,2.2
same,The level of expressed mRNA in the presence of chemical substance/The level of expressed mRNA in the absence of chemical substance,yeast gene YDR298C,1.2
same,The level of expressed mRNA in the presence of chemical substance/The level of expressed mRNA in the absence of chemical substance,yeast gene YDR342C,1.1
same,The level of expressed mRNA in the presence of chemical substance/The level of expressed mRNA in the absence of chemical substance,yeast gene YDR343C,1.3
same,The level of expressed mRNA in the presence of chemical substance/The level of expressed mRNA in the absence of chemical substance,yeast gene YDR345C,1.2
same,The level of expressed mRNA in the presence of chemical substance/The level of expressed mRNA in the absence of chemical substance,yeast gene YDR387C,1.2
same,The level of expressed mRNA in the presence of chemical substance/The level of expressed mRNA in the absence of chemical substance,yeast gene YDR497C,0.6
same,The level of expressed mRNA in the presence of chemical substance/The level of expressed mRNA in the absence of chemical substance,yeast gene YEL027W,1.1
same,The level of expressed mRNA in the presence of chemical substance/The level of expressed mRNA in the absence of chemical substance,yeast gene YEL063C,1.3
same,The level of expressed mRNA in the presence of chemical substance/The level of expressed mRNA in the absence of chemical substance,yeast gene YEL065W,2.3
same,The level of expressed mRNA in the presence of chemical substance/The level of expressed mRNA in the absence of chemical substance,yeast gene YER053C,2.8
same,The level of expressed mRNA in the presence of chemical substance/The level of expressed mRNA in the absence of chemical substance,yeast gene YER119C,1.3
same,The level of expressed mRNA in the presence of chemical substance/The level of expressed mRNA in the absence of chemical substance,yeast gene YFL011W,1.0
same,The level of expressed mRNA in the presence of chemical substance/The level of expressed mRNA in the absence of chemical substance,yeast gene YFL041W,2.0
same,The level of expressed mRNA in the presence of chemical substance/The level of expressed mRNA in the absence of chemical substance,yeast gene YFL050C,0.9
same,The level of expressed mRNA in the presence of chemical substance/The level of expressed mRNA in the absence of chemical substance,yeast gene YFL054C,2.4
same,The level of expressed mRNA in the presence of chemical substance/The level of expressed mRNA in the absence of chemical substance,yeast gene YFL055W,1.1
same,The level of expressed mRNA in the presence of chemical substance/The level of expressed mRNA in the absence of chemical substance,yeast gene YGL006W,1.0
same,The level of expressed mRNA in the presence of chemical substance/The level of expressed mRNA in the absence of chemical substance,yeast gene YGL008C,1.9
same,The level of expressed mRNA in the presence of chemical substance/The level of expressed mRNA in the absence of chemical substance,yeast gene YGL104C,2.1
same,The level of expressed mRNA in the presence of chemical substance/The level of expressed mRNA in the absence of chemical substance,yeast gene YGL167C,2.0
same,The level of expressed mRNA in the presence of chemical substance/The level of expressed mRNA in the absence of chemical substance,yeast gene YGL255W,1.1
same,The level of expressed mRNA in the presence of chemical substance/The level of expressed mRNA in the absence of chemical substance,yeast gene YGR055W,1.1
same,The level of expressed mRNA in the presence of chemical substance/The level of expressed mRNA in the absence of chemical substance,yeast gene YGR065C,2.4
same,The level of expressed mRNA in the presence of chemical substance/The level of expressed mRNA in the absence of chemical substance,yeast gene YGR082W,1.1
same,The level of expressed mRNA in the presence of chemical substance/The level of expressed mRNA in the absence of chemical substance,yeast gene YGR096W,1.7
same,The level of expressed mRNA in the presence of chemical substance/The level of expressed mRNA in the absence of chemical substance,yeast gene YGR138C,0.8
same,The level of expressed mRNA in the presence of chemical substance/The level of expressed mRNA in the absence of chemical substance,yeast gene YGR191W,1.1
same,The level of expressed mRNA in the presence of chemical substance/The level of expressed mRNA in the absence of chemical substance,yeast gene YGR197C,0.5
same,The level of expressed mRNA in the presence of chemical substance/The level of expressed mRNA in the absence of chemical substance,yeast gene YGR224W,0.8
same,The level of expressed mRNA in the presence of chemical substance/The level of expressed mRNA in the absence of chemical substance,yeast gene YGR260W,0.9
